Type in all cases: cell-based
For data set [1], the system named is African green monkey kidney Vero cells. Put plainly: Cytotoxicity, control group of chikungunya micro-neutralization test. The conditions noted are these: 3 days. As for the experimental part: (§1) African green monkey kidney Vero cells were infected with chikungunya virus at an MOI of 0.001 in the presence of chlorophyllide at indicated dosages, and then incubated for 3 days, followed by the micro-neutralization test.

A further data set deals with chikungunya virus. The data set is described as follows: Chikungunya micro-neutralization test. The conditions noted are these: Vero cells, MOI 0.001, 3 days. How it is done:
as §1

Another data set concerns Zika virus. Put plainly: Zika micro-neutralization test. The conditions noted are these: Vero cells, MOI 0.1, 4 to 5 days. As for the experimental part:
(§2) African green monkey kidney Vero cells were infected with Zika virus at an MOI of 0.1 in the presence of chlorophyllide at indicated dosages, and then incubated for 4 to 5 days, followed by the micro-neutralization test.

The subject of data set [2] is African green monkey kidney Vero cells. Put plainly: Cytotoxicity, control group of Zika micro-neutralization test. The conditions noted are these: 4 to 5 days. How it is done:
as §2

Turning to chlorophyllide, the cytotoxicity dose result in data set [1] and in data set [2] was “greater than 100 μg/mL” each time. Further, the “EC50 for antiviral activity against chikungunya” value in the data set on chikungunya virus stood at 18.75 mg/L. In the data set with Zika virus, the “EC50 for antiviral activity against Zika” value worked out at 12.5 mg/L.
